pIC50: −log10 of the molar value. Read-outs that look alike come from different tables or passages of the source.
Key:
CRBN-DDB1 = CRBN-DDB1 (Homo sapiens (Human), UniProt Q96SW2); test: Homogenous Time-Resolved Fluorescence (HTRF) binding assay to CRBN
Protocol: Compound activity was monitored in a Homogenous Time-Resolved Fluorescence (HTRF) assay using 1-[5-({2-[2-(2-{[2-(2,6-dioxopiperidin-3-yl)-1,3-dioxo-2,3-dihydro-1H-isoindol-4-yl]oxy}acetamido)ethoxy]ethyl}carbamoyl)pentyl]-3,3-dimethyl-2-[(1E,3E)-5-[(2E)-1,3,3-trimethyl-5-sulfo-2,3-dihydro-1H-indol-2-ylidene]penta-1,3-dien-1-yl]-3H-indol-1-ium-5-sulfonate as a fluorescent probe. […] Compounds were stored in dry, ambient temperatures at 10 mM. A 10-point, 1:3 dilution series was prepared from 10 mM stock concentrations in Echo-compatible LDV plates. 10 nL of each compound dilution series was dispensed into assays wells using an Echo 650 (Labcyte inc. USA). […] The assay was then allowed to incubate for 30 min at ambient temperature after transferring compound. […] Analysis and IC50 values were derived using KNIME analytics (KNIME Zurich) transformation and fitting within Collaborative Drug Discovery (Collaborative Drug Discovery USA). Ki was derived from the geometric mean of the IC50 values using the Cheng-Prustoff transformation.

GSPT1 [1] = target: T1, GSPT1 (Homo sapiens (Human), UniProt P15170+Q96SW2); test: immunofluorescence assay for GSPT1 degradation in CAL-51 cells (Example 10); format: cell-based
Protocol: The representative compounds were tested in an immunofluorescence assay for their activity to degrade GSPT1. […] Compounds were stored at 10 mM DMSO stocks. […] Cells were subsequently rinsed with PBS and fixed in 10% Formalin solution (50 μl, Sigma HT5011)) for 20 mins at room temperature. […] Following three further PBS washes, 50 μL blocking buffer (1% BSA, Sigma A4503, in PBS) was added for 45 min for signal-to noise reduction. Primary antibody (human GSPT1, Sigma HPA052488) was diluted in blocking buffer (dil.1/300, 35 μL/well) and incubated with the cells overnight at 4° C. […] After three final PBS washes, samples were conserved in 100 μL PBS in the dark, until measurement. Image acquisition was performed on the Operetta High-Content Imager (Perkin-Elmer). […] For the determination of GSPT1 DC50 values, a custom algorithm implemented in the PerkinElmer image analysis software Harmony-Acapella® was developed. After user-defined setting of adjustment parameters, the analysis was run identically without human intervention for all image fields. DAPI staining of the nuclei was used to determine the location of cells using standard nuclei detection modules. Segmentation artifacts were removed by threshold-based filters for area, roundness and intensity. The outline of the cells was determined analogously from the sum of the normalized, smoothed DAPI and Actin channel, starting from each nucleus. […] GSPT1 degradation (DC50) was calculated after normalization to controls and data import in CDD vault Database, using non-linear regression.

IKZF3 (Aiolos) = IKZF3 (Aiolos) (Homo sapiens (Human), UniProt Q9UKT9); test: selectivity by Western blot in MM1S cells, IKZF3; format: cell-based; design: key to IKZF3 degradation: A represents a no degradation observed at 30 μM; B represents trace degradation at 30 μM (below 20%); C represents weak degradation at 30 μM (below 50%); D represents degradation at 30 μM (>90%); E represents degradation at 3 μM (>90%); F represents degradation at 0.3 μM (>90%); conditions: MM1S cells, 6 hours, 0.3, 3 and 30 μM
IKZF3 (Aiolos), sequence (Q9UKT9 whole entry, looked up): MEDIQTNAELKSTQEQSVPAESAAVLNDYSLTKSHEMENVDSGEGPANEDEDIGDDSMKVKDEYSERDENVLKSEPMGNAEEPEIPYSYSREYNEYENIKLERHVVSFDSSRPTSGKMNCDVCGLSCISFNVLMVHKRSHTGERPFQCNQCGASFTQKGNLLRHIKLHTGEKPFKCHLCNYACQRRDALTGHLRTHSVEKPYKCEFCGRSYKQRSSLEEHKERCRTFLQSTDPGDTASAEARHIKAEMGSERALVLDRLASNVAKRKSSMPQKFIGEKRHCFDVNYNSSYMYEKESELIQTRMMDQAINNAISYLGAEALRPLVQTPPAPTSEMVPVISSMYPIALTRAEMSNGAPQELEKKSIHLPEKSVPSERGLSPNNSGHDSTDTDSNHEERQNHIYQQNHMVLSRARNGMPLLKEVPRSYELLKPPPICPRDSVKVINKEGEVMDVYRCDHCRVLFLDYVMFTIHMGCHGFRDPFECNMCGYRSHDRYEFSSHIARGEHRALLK
Protocol: (§1) MM1S cells were purchased from ATCC (cat. Number CRL-2974), sub-cultured in 90% RPMI 1640 with 10% FBS, supplemented with 1× P/S and incubated at 37° C., 5% CO2. Compounds were stored as 10 mM DMSO stock. For the assay, MM1S cells (3 million cells/well) were plated in 6-well plates and incubated over night. Cells were treated with respective compounds using a serial dilution: 0.3 μM, 3 μM and 30 μM as well as a vehicle only (DMSO) control for 6 hours. Media with suspension cells was subsequently transferred to 15 mL conical tubes, wells rinsed twice with ice-cold PBS and merged with cell suspension in respective 15 mL conical tube. Cells were spinned down, supernatant aspirated, pellets resuspended in ice-cold PBS and transferred to microtubes. Cells were spinned down, supernatant aspirated and pellets resuspended in 120 μL RIPA lysis buffer supplemented with protease and phosphatase inhibitors. Cell lysates were incubated on ice for 20 minutes followed by centrifugation at >20,000 xg for 5 min. Supernatants were transferred to fresh microtubes and stored at −80° C. Total protein concentration was determined using a BCA assay with a BSA standard curve and concentration of all samples was adjusted to 1 mg/mL. 25 μL 4× LDS sample buffer supplemented with 100 mM DTT was added to 75 μL sample. Samples were centrifuged (8,000 xg, 1 min) and incubated at 95° C. for 5 min followed by another centrifugation step (8,000 xg, 1 min). 20 μL of each sample was loaded on a 4-12% gel alongside a protein molecular weight marker. Gels were run in the presence of MOPS buffer at 80 Volts for 30 min, followed by 120 Volts for 1.5 h and proteins subsequently transferred onto nitrocellulose membranes at 20 Volts for 7 min using an iBlot2 Gel Transfer Device. Membranes were then cut horizontally into two pieces, covering 80-50 kDa and 50-25 kDa. Blocking the membranes was performed by gently shaking in 5% (w/v) skim milk in TSB-T for 1 hr at room temperature. All primary antibodies were used at a 1/1000 in 5% (w/v) BSA dissolved in TBST and incubated with membranes over night at 4° C. Anti-IKZF1 (Ikaros; D6N9Y; 14859S), anti-IKZF3 (Aiolos; D1C1E; 15103S) antibodies were purchased from Cell Signalling Technology, anti-ZFP91 antibody from Bethyl laboratories, anti-GSPT1 from Sigma Aldrich (HPA052488) and anti CK1alpha from AbCam (ab206652). After three washes with 1× TBST for 5 min, HRP-coupled secondary antibodies diluted in 5% (w/v) BSA/TBST (Goat Anti-Rb IgG, dil. 1/10,000; Goat Anti-Mouse IgG, dil. 1/5000) were added for 1 hr at room temperature. After three washes with 1× TBST (5 minutes each), membranes were incubated with ECL reagent for 1 min at room temperature. Chemiluminescence signals were then detected using a LAS-4000 system with default settings and signals quantified using Image Studio Lite software (version 5.2). Membrane parts previously incubated with antibody against CK1alpha were stripped off antibodies by incubating with stripping buffer for 30 minutes followed by three washed with TBST (5 min each), blocking with 5% (w/v) skim milk for 1 hr, and incubation with primary antibody against GAPDH overnight at 4° C. Subsequent washes, incubation with secondary antibody and signal acquisition were performed as described above.

IKZF1 (Ikaros) = IKZF1 (Ikaros) (Homo sapiens (Human), UniProt Q13422); test: selectivity by Western blot in MM1S cells, IKZF1; format: cell-based; design: key to IKZF1 degradation: A represents a no degradation observed at 30 μM; B represents trace degradation at 30 μM (below 20%); C represents weak degradation at 30 μM (below 50%); D represents degradation at 30 μM (>90%); E represents degradation at 3 μM (>90%); F represents degradation at 0.3 μM (>90%); conditions: MM1S cells, 6 hours, 0.3, 3 and 30 μM
IKZF1 (Ikaros), sequence (Q13422 whole entry, looked up): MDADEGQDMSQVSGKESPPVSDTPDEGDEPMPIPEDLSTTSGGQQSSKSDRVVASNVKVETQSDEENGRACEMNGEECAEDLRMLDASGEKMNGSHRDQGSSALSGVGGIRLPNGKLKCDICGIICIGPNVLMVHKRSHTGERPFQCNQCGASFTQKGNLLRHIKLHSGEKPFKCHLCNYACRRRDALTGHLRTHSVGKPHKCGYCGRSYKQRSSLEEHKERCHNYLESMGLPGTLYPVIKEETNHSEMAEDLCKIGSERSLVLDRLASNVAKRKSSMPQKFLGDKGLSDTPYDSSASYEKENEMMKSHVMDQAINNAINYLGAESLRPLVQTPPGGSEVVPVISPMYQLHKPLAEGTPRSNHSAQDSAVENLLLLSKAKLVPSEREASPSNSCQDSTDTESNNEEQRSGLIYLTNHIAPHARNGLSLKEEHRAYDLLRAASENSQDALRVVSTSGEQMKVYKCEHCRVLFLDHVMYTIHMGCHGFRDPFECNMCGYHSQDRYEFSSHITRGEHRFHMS
Protocol: as §1

ZFP91 = ZFP91 (Homo sapiens (Human), UniProt Q96JP5); test: selectivity by Western blot in MM1S cells, ZFP91; format: cell-based; design: key: A represents a no degradation observed at 30 μM; B represents trace degradation at 30 μM (below 20%); C represents weak degradation at 30 μM (below 50%); D represents degradation at 30 μM (>90%); E represents degradation at 3 μM (>90%); F represents degradation at 0.3 μM (>90%); conditions: 6 hours, 0.3, 3 and 30 μM
ZFP91, sequence (Q96JP5 whole entry, looked up): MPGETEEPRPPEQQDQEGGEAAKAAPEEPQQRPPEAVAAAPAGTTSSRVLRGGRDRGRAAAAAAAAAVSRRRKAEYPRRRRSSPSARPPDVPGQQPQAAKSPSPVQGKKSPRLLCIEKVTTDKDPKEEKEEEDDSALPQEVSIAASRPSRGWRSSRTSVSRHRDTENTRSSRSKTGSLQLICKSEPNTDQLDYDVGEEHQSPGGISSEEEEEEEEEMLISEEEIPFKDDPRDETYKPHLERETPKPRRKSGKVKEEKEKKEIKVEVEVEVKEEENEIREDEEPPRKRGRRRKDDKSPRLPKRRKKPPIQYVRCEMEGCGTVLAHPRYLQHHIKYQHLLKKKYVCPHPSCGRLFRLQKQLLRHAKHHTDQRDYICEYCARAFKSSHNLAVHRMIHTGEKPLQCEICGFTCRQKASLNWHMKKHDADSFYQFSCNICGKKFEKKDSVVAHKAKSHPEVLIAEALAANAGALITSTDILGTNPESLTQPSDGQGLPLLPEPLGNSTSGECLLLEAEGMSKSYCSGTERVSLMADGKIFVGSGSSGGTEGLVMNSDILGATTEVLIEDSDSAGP
Protocol: as §1, with “After three washes with 1× TBST (5 minutes each), membranes were incubated with ECL reagent for 1 min at room temperature.” left out, “Membrane parts previously incubated with antibody against CK1alpha were stripped off antibodies by incubating with stripping buffer for 30 minutes followed by three washed with TBST (5 min each), blocking with 5% (w/v) skim milk for 1 hr, and incubation with primary antibody against GAPDH overnight at 4° C. Subsequent washes, incubation with secondary antibody and signal acquisition were performed as described above.” left out

CK1alpha = CK1alpha (Homo sapiens (Human), UniProt P48729); test: selectivity by Western blot in MM1S cells, CK1alpha; format: cell-based; conditions: MM1S cells, 6 hours, 0.3, 3 and 30 μM
CK1alpha, sequence (P48729 whole entry, looked up): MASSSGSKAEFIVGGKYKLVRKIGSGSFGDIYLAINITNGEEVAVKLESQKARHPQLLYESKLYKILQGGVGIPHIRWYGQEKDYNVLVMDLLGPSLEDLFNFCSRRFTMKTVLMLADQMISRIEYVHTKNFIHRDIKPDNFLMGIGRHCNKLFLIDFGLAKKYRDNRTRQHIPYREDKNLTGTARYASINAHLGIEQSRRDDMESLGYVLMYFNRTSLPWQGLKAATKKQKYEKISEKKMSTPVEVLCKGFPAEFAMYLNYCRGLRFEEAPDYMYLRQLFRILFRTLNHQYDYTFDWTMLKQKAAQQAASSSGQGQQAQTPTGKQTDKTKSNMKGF
Protocol: as §1

GSPT1 [2] = target: T1, GSPT1; test: selectivity by Western blot in MM1S cells, GSPT1; format: cell-based; conditions: MM1S cells, 6 hours, 0.3, 3 and 30 μM
Protocol: as §1
Target sequence in this assay (P15170 whole entry, looked up): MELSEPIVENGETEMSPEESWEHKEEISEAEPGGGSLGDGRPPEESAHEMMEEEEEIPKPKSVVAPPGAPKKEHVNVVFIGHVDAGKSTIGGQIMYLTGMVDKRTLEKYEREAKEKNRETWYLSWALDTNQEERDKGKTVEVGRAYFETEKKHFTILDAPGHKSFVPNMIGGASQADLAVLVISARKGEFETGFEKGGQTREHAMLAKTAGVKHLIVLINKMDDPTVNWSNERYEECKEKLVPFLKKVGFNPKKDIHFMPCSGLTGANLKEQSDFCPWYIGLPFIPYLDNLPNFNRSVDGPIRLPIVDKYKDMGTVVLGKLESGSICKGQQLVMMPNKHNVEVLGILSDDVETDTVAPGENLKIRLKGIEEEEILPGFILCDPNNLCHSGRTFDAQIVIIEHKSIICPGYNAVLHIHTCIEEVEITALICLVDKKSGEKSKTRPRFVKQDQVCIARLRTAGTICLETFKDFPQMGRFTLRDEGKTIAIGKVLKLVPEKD
Target sequence in this assay (Q96SW2 whole entry, looked up): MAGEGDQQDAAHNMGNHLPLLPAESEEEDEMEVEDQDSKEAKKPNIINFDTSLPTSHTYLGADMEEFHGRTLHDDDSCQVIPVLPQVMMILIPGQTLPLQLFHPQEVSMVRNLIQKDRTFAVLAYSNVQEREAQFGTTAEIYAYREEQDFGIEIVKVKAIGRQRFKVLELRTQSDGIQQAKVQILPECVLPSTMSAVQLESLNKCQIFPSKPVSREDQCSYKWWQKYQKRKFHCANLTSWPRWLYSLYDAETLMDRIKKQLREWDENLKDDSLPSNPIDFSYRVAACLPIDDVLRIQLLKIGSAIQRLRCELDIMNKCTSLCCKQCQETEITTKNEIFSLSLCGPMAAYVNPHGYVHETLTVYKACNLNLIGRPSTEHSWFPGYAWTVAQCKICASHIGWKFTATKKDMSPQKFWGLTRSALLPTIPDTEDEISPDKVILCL
Target sequence in this assay (Q16531 whole entry partner, looked up): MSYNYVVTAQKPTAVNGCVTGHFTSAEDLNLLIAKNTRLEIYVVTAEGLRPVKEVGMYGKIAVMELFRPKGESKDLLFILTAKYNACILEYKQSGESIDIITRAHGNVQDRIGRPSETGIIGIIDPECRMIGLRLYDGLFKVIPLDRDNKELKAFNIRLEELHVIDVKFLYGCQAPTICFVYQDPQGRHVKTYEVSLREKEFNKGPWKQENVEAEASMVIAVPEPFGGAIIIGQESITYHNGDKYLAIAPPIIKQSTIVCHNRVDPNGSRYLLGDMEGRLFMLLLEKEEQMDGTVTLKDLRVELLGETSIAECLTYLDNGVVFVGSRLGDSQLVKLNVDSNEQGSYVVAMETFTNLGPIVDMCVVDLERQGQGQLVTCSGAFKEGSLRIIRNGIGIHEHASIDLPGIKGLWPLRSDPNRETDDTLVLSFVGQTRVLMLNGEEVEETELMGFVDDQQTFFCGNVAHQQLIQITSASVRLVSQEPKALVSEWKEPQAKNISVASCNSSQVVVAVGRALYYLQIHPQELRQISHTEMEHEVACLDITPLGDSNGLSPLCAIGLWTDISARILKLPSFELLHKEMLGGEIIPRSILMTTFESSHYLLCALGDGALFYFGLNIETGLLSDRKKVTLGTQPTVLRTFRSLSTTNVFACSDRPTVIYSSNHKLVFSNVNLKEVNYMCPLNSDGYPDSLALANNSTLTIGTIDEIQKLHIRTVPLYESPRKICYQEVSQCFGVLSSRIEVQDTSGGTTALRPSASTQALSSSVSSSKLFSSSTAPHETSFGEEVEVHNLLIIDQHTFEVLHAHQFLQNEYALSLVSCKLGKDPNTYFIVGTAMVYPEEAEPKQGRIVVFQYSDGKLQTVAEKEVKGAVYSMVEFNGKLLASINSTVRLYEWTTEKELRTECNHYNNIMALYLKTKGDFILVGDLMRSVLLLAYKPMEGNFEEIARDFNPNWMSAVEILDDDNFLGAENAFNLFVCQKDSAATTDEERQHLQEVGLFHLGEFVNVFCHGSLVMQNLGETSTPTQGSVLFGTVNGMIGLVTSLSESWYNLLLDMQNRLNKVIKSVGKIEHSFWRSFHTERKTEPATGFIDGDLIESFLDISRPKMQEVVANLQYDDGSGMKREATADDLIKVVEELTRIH

GSPT1 [3] = target: T1, GSPT1; test: immunofluorescence assay for GSPT1 degradation in CAL-51 cells (Example 4); format: cell-based
Outline: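 CAL-51 cells on fibronectin-coated plates were treated 6 h with serial dilutions (30 μM to 0.1 nM), then fixed and immunostained for GSPT1 with DAPI and phalloidin counterstains. Per-cell mean GSPT1 intensity from high-content imaging, normalized to controls; DC50 by non-linear regression.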

[4] = 6 hours, read-out: Activity for GSPT1 degradation, Code (DC50)
[5] = GSPT1 degradation, read-out: DC50 value
[6] = CRBN-DDB1, HTRF, read-out: HTRF Class (HTRF IC50, Cereblon binding)
[7] = CAL-51 cells, 6 h; read-out: IF Class (GSPT1 degradation DC50)

CRBN-DDB1, sequence (Q96SW2 whole entry): as the sequence (Q96SW2 whole entry, looked up) above
CRBN-DDB1, sequence (Q16531 whole entry partner): as the sequence (Q16531 whole entry partner, looked up) above

Compound | pIC50 (CRBN-DDB1) | DC50 (GSPT1 [1]; read-out: IF Class (GSPT1 degradation DC50); CAL-51 cells, 6 h) | IKZF3 degradation (IKZF3 (Aiolos)) | IKZF1 degradation (IKZF1 (Ikaros)) | ZFP91 degradation (ZFP91) | CK1alpha degradation (CK1alpha) | GSPT1 degradation (GSPT1 [2]) | DC50 (GSPT1 [3]; [4]) | DC50 (GSPT1 [3]; [5]) | pIC50 (CRBN-DDB1; [6]) | DC50 (GSPT1 [1]; [7])
COc1ccc(C(F)(F)C23CC(NC(=O)OCc4ccc5c(c4)C(=O)N(C4CCC(=O)NC4=O)C5)(C2)C3)cc1 (stereo not shown) [Compound 214, (2-(2,6-dioxopiperidin-3-yl)-3-oxoisoindolin-5-yl)methyl(3-(difluoro(4-methoxyphenyl)methyl)bicyclo[1.1.1]pentan-1-yl)carbamate] | > 7.00 | 30 to 300 nM | – | – | – | – | – | – | – | – | –
O=C1CCC(N2Cc3ccc(COC(=O)Nc4cccc(OC(F)(F)F)c4)cc3C2=O)C(=O)N1 (stereo not shown) [Compound 3] | – | – | A | A | B (B represents trace degradation at 30 μM (below 20%)) | B (B represents trace degradation at 30 μM (below 20%)) | F (F represents degradation at 0.3 μM (>90%)) | < 30 nM | ≤ 30 nM | – | –
CC(C)(C)c1ccc(NC(=O)OCc2ccc3c(c2)C(=O)N(C2CCC(=O)NC2=O)C3)cc1 (stereo not shown) [Compound 47] | – | – | A | A | B (B represents trace degradation at 30 μM (below 20%)) | B (B represents trace degradation at 30 μM (below 20%)) | F (F represents degradation at 0.3 μM (>90%)) | < 30 nM | ≤ 30 nM | – | –
Cc1ccc(NC(=O)OCc2ccc3c(c2)C(=O)N([C@@H]2CCC(=O)NC2=O)C3)cc1Cl (single isomer, unassigned) [Compound 176] | – | – | – | – | – | – | – | – | – | > 7.00 | < 30 nM
COc1cc(C)c(Cl)cc1NC(=O)OCc1ccc2c(c1)C(=O)N(C1CCC(=O)NC1=O)C2 (stereo not shown) [Compound 1] | – | – | B (B represents trace degradation at 30 μM (below 20%)) | A | A | B (B represents trace degradation at 30 μM (below 20%)) | F (F represents degradation at 0.3 μM (>90%)) | < 30 nM | ≤ 30 nM | – | –
CCc1ncc(NC(=O)OCc2ccc3c(c2)C(=O)N(C2CCC(=O)NC2=O)C3)cc1C (stereo not shown) [Compound 49] | – | – | A | A | B (B represents trace degradation at 30 μM (below 20%)) | B (B represents trace degradation at 30 μM (below 20%)) | F (F represents degradation at 0.3 μM (>90%)) | < 30 nM | ≤ 30 nM | – | –
Cc1c(Cl)cc(NC(=O)OCc2ccc3c(c2)C(=O)N(C2CCC(=O)NC2=O)C3)cc1OCCN1CCOCC1 (stereo not shown) [Compound 48] | – | – | B (B represents trace degradation at 30 μM (below 20%)) | A | – | B (B represents trace degradation at 30 μM (below 20%)) | F (F represents degradation at 0.3 μM (>90%)) | < 30 nM | ≤ 30 nM | – | –
Cc1ccc(NC(=O)OCc2ccc3c(c2)C(=O)N([C@H]2CCC(=O)NC2=O)C3)cc1Cl (single isomer, unassigned) [Compound 175] | – | – | – | – | – | – | – | – | – | < 6.00 | < 30 nM
